Reference: US6187802A, “Substituted 4-arylmethylene-2-imino-2,3-dihydrothiazoles and derivatives and their pharmaceutical use” (Knoll Aktiengesellschaft, priority 1997, dated 2001)
Structures can show the parent of a compound that is named as a salt.

Key:
[1] = target: T1, dopamine (DA) reuptake sites (Rattus norvegicus, UniProt P23977); assay: displacement of [3H]GBR 12935 from dopamine reuptake sites, striatal membranes; type: binding; settings: 10^-6 M test compound, [3H]GBR 12935 1 nM, one test only, read-out: DA uptake (% displacement of specific binding of tritiated ligand)
T1 construct: Striatal tissue from the brains of male Charles River rats weighing 150-250 g; from tissue; host or cells: rat brain striatum (crude synaptosomes in A1, washed membranes in A4)
T1 sequence (P23977 whole entry): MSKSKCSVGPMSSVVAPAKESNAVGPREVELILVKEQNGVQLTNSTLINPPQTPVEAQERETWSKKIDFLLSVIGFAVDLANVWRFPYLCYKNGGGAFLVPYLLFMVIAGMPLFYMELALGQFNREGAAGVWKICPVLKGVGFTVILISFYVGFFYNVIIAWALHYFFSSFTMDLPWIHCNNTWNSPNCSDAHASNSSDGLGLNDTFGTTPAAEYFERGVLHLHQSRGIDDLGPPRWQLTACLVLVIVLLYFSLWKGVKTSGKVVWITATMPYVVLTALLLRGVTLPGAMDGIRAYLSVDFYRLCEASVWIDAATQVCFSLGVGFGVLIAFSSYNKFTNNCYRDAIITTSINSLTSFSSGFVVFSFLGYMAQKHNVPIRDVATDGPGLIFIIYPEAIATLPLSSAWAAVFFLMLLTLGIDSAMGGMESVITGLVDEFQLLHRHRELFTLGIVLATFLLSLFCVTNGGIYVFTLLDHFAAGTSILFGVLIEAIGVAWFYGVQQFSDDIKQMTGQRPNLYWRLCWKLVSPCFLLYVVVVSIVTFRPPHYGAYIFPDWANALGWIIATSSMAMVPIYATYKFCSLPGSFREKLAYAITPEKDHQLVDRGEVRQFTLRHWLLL
Procedure, shortened: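 Rat striatal membranes (male rats, 150-250 g) incubated 90 min at 4 °C with 1 nM [3H]GBR 12935 in 50 mM Tris-HCl pH 7.4, 200 mM NaCl, 5 mM KCl; non-specific binding with 1 μM mazindol. Filtration, scintillation counting; value is % displacement of specific binding at 10^-6 M, single test; IA means <50%.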

[2] = target: T2, 5-hydroxytryptamine (5-HT) reuptake sites (Rattus norvegicus, UniProt P31652); assay: displacement of [3H]paroxetine from 5-HT reuptake sites, frontal cortical membranes; type: binding; settings: 10^-6 M test compound, [3H]paroxetine 30 pM, one test only, read-out: 5-HT uptake (% displacement of specific binding of tritiated ligand)
T2 construct: Frontal cortical tissue from the brains of male Sprague-Dawley rats; from tissue; host or cells: rat brain frontal cortex (crude synaptosomes in A2, washed membranes in A5)
T2 sequence (P31652 whole entry): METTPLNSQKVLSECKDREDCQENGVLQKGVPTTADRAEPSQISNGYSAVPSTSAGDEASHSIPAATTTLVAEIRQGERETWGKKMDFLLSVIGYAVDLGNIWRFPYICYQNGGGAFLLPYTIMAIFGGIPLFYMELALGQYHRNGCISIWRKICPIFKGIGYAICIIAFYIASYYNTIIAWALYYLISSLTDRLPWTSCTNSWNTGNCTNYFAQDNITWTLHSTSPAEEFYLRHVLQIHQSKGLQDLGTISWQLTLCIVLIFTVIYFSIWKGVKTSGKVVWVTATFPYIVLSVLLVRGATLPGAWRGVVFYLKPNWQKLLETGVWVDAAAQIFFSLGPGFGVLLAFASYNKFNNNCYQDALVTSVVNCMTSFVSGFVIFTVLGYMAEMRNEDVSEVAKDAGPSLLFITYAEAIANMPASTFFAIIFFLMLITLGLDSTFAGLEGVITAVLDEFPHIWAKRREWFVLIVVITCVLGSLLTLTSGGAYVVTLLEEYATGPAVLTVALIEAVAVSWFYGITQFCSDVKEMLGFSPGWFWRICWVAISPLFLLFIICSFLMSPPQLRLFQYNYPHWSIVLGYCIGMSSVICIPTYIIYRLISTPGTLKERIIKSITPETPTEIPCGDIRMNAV
Procedure, shortened: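 Rat frontal cortex membranes (male, 150-250 g; 2 mg wet tissue/tube) in 50 mM Tris-HCl pH 7.5 with 120 mM NaCl and 5 mM KCl, incubated 2 h at 22 °C with 30 pM [3H]paroxetine and compound at 10^-6 M. Citalopram 1 μM defined non-specific binding; values are % displacement of specific binding from a single test, filtration and scintillation counting.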

[3] = target: T3, noradrenaline (NA) reuptake sites (Rattus norvegicus, UniProt Q63380); assay: displacement of [3H]nisoxetine from noradrenaline reuptake sites, frontal cortical membranes; settings: 10^-6 M test compound, [3H]nisoxetine 0.6 nM, one test only, read-out: NA uptake (% displacement of specific binding of tritiated ligand)
T3 construct: Frontal cortical tissue from the brains of male Sprague-Dawley rats; from tissue; host or cells: rat brain frontal cortex (crude synaptosomes in A3, washed membranes in A6)
T3 sequence (Q63380 1-617): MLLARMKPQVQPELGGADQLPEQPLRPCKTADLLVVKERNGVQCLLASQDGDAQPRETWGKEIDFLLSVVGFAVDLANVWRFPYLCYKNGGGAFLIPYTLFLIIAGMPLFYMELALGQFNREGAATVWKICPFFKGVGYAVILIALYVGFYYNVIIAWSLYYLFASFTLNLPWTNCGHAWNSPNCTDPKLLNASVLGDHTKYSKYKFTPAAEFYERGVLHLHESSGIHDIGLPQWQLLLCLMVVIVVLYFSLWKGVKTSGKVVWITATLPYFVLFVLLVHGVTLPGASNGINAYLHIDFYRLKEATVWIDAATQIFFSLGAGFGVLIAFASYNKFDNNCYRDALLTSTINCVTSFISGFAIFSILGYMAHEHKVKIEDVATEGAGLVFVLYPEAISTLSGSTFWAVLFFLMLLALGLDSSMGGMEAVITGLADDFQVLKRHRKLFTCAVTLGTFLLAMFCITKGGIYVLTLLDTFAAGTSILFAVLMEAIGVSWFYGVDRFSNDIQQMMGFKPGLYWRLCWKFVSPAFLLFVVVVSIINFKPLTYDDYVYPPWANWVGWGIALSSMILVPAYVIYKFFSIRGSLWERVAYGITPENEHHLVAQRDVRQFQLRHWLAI
Procedure, shortened: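 Washed male rat frontal cortex membranes in 50 mM Tris pH 7.4, 300 mM NaCl, 5 mM KCl, incubated 4 h at 4 °C with 0.6 nM [3H]nisoxetine and test compound at 10^-6 M; mazindol (1 μM) defined non-specific binding. Filtration, scintillation counting; % displacement of specific binding, single test.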

With `Clc1ccc(C2(c3csc(=Nc4ccccc4)n3-c3ccccc3)CCC2)cc1Cl` [Example 27, 4-[1-(3,4-Dichlorophenyl)cyclobutyl]-3-phenyl-2-phenylimino-2,3-dihydrothiazole hydrobromide] the inhibition at 1 µM [1] was 84%, the inhibition at 1 µM [2] was less than 50% and the inhibition at 1 µM [3] was less than 50%.
Work on `CCCCN=c1scc(C2(c3ccc(Cl)cc3)CCC2)n1CCCC` [Example 56, 3-Butyl-2-butylimino-4-[1-(4-chlorophenyl)cyclobutyl]-2,3-dihydrothiazole hydrobromide] yielded an inhibition at 1 µM [1] of 93%, an inhibition at 1 µM [2] of less than 50% and an inhibition at 1 µM [3] of less than 50%.
For `Fc1cccc(C2(C3=CSC4=NCCN34)CCC2)c1` [Example 75, 3-[1-(3-Fluorophenyl)cyclobutyl]-5,6-dihydroimidazo[2,1-b]thiazole hydrobromide], the inhibition at 1 µM [1] was less than 50%, the inhibition at 1 µM [2] was 53% and the inhibition at 1 µM [3] was less than 50%.
`Cc1ccc(N=c2scc(C3(c4ccc5ccccc5c4)CCC3)n2-c2ccc(C)cc2C)c(C)c1` [Example 52, 4-[1-(2-Naphthyl)cyclobutyl]-3-(2,4-xylyl)-2-(2,4-xylylimino)-2,3-dihydrothiazole hydrobromide] gave an inhibition at 1 µM [1] of 74%, an inhibition at 1 µM [2] of less than 50% and an inhibition at 1 µM [3] of less than 50%.
In the case of `c1ccc(CN=c2scc(C3(c4ccc5ccccc5c4)CCC3)n2Cc2ccccc2)cc1` [Example 44, 3-Benzyl-2-benzylimino-4-[1-(2-naphthyl)cyclobutyl]-2,3-dihydrothiazole hydrobromide], the inhibition at 1 µM [1] is reported as 96%, the inhibition at 1 µM [2] is reported as 72% and the inhibition at 1 µM [3] is reported as less than 50%.
With `CCCCN=c1scc(C2(c3ccccc3)CCCCC2)n1CCCC` [Example 61, 3-Butyl-2-butylimino-4-(1-phenylcyclohexyl)-2,3-dihydrothiazole hydrobromide] the inhibition at 1 µM [1] was 68%, the inhibition at 1 µM [2] was less than 50% and the inhibition at 1 µM [3] was less than 50%.
`Clc1ccc(C2(c3csc(=NCCc4ccccc4)n3CCc3ccccc3)CCC2)cc1` [Example 64, 4-[1-(4-Chlorophenyl)cyclobutyl]-3-phenethyl-2-phenethylimino-2,3-dihydrothiazole hydrobromide] gave an inhibition at 1 µM [1] of 102%, an inhibition at 1 µM [2] of less than 50% and an inhibition at 1 µM [3] of less than 50%.
With `Fc1ccc(CN=c2scc(C3(c4ccc5ccccc5c4)CCC3)n2Cc2ccc(F)cc2)cc1` [Example 45, 3-(4-Fluorobenzyl)-2-(4-fluorobenzylimino)-4-[1-(2-naphthyl)cyclobutyl]-2,3-dihydrothiazole hydrobromide] the inhibition at 1 µM [1] was 96%, the inhibition at 1 µM [2] was 59% and the inhibition at 1 µM [3] was less than 50%.
Work on `CN=c1scc(C2(c3ccc(Cl)c(Cl)c3)CCC2)n1C` [Example 14, 4-[1-(3,4-Dichlorophenyl)cyclobutyl]-3-methyl-2-methylimino-2,3 dihydrothiazole hydrobromide] yielded an inhibition at 1 µM [1] of 103%, an inhibition at 1 µM [2] of 96% and an inhibition at 1 µM [3] of 80%.
Compound `Clc1ccc(C2(C3=CSC4=NCCN34)CCCC2)cc1Cl` [Example 6, 3-[1-(3,4-dichlorophenyl)cyclopentyl]-5,6-dihydroimidazo[2,1-b]thiazole hydrobromide] has an inhibition at 1 µM [1] of 112%, an inhibition at 1 µM [2] of 86% and an inhibition at 1 µM [3] of 101%.
For `C=CCN=c1scc(C2(c3ccc4ccccc4c3)CCC2)n1CC=C` [Example 42, 3-Allyl-2-allylimino-4-[1-(2-naphthyl)cyclobutyl]-2,3-dihydrothiazole hydrobromide], the inhibition at 1 µM [1] was 113%, the inhibition at 1 µM [2] was 101% and the inhibition at 1 µM [3] was 93%.
Compound `CC(C)CN=c1scc(C2(c3ccc4ccccc4c3)CCC2)n1CC(C)C` [Example 41, 3-lsobutyl-2-isobutylimino-4-[1-(2-naphthyl)cyclobutyl]-2,3-dihydrothiazolehydrobromide] has an inhibition at 1 µM [1] of 107%, an inhibition at 1 µM [2] of 98% and an inhibition at 1 µM [3] of 79%.
`CC(C)(C1=CSC2=NCCN12)c1ccc(Cl)cc1` [Example 73, 3-[1-(4-Chlorophenyl)-1-methylethyl]-5,6-dihydroimidazo[2,1-b]thiazole hydrobromide] was tested, and the inhibition at 1 µM [1] was 59%, the inhibition at 1 µM [2] was less than 50% and the inhibition at 1 µM [3] was less than 50%.
For `Clc1ccc(C2(c3csc(=NCc4cccnc4)n3Cc3cccnc3)CCC2)cc1Cl` [Example 25, 4-[1-(3,4-Dichlorophenyl)cyclobutyl]-3-(3-pyridylmethyl)-2-(3-pyridylmethylimino)-2,3-dihydrothiazole hydrobromide], the inhibition at 1 µM [1] was 108%, the inhibition at 1 µM [2] was 95% and the inhibition at 1 µM [3] was 66%.
Compound `CCN=c1scc(C2(c3ccc(Cl)c(Cl)c3)CCC2)n1CC` [Example 15, 4-[1-(3,4-Dichlorophenyl)cyclobutyl]-3-ethyl-2-ethylimino-2,3-dihydrothiazole hydrobromide] has an inhibition at 1 µM [1] of 115%, an inhibition at 1 µM [2] of 102% and an inhibition at 1 µM [3] of 99%.
In the case of `c1ccc2cc(C3(c4csc(=NCC5CC5)n4CC4CC4)CCC3)ccc2c1` [Example 43, 3-Cyclopropylmethyl-2-cyclopropylmethylimino4-[1-(2-naphthyl)cyclobutyl]-2,3-dihydrothiazole hydrobromide], the inhibition at 1 µM [1] is reported as 113%, the inhibition at 1 µM [2] is reported as 101% and the inhibition at 1 µM [3] is reported as 93%.
`C=CCN=c1scc(C2(c3ccc(Cl)c(Cl)c3)CCC2)n1CC=C` [Example 20, 3-Allyl-2-allylimino-4-[1-(3,4-dichlorophenyl)cyclobutyl]-2,3-dihydrothiazole hydrobromide] gave an inhibition at 1 µM [1] of 105%, an inhibition at 1 µM [2] of 104% and an inhibition at 1 µM [3] of 91%.
For `CC(C)N=c1scc(C2(c3ccc4ccccc4c3)CCC2)n1C(C)C` [Example 39, 3-Isopropyl-2-isopropylimino-4-[1-(2-naphthyl)cyclobutyl]-2,3-dihydrothiazole hydrobromide], the inhibition at 1 µM [1] was 108%, the inhibition at 1 µM [2] was 100% and the inhibition at 1 µM [3] was 58%.
With `Cc1ccc(N=c2scc(C3(c4ccc(Cl)c(Cl)c4)CCC3)n2-c2ccc(C)cc2)cc1` [Example 28, 4-[1-(3,4-Dichlorophenyl)cyclobutyl]-3-(p-tolyl)-2-(ptolylimino)-2,3-dihydrothiazole hydrobromide] the inhibition at 1 µM [1] was 71%, the inhibition at 1 µM [2] was less than 50% and the inhibition at 1 µM [3] was less than 50%.
`C1=C(C2(c3ccc4ccccc4c3)CCC2)N2CCCN=C2S1` [Example 34, 3-[1-(2-Naphthyl)cyclobutyl]-6,7-dihydro-5H-thiazolo[3,2-a]pyrimidine hydrobromide] showed an inhibition at 1 µM [1] of 109%, an inhibition at 1 µM [2] of 100% and an inhibition at 1 µM [3] of 110%.
For `COc1ccc(CCN=c2scc(C(C)(C)c3ccc(Cl)c(Cl)c3)n2CCc2ccc(OC)c(OC)c2)cc1OC` [Example 69, 4-[l-(3,4-Dichlorophenyl)-1-methylethyl]-3-(3,4-dimethoxyphenethyl)-2-(3,4-dimethoxyphenethylimino)-2,3-dihydrothiazole hydrobromide], the inhibition at 1 µM [1] was 58%, the inhibition at 1 µM [2] was less than 50% and the inhibition at 1 µM [3] was less than 50%.
For `COCCC1=C(C2(c3ccc(Cl)c(Cl)c3)CCC2)N2CCN=C2S1` [Example 8, 3-[1-(3,4-dichlorophenyl)cyclobutyl]-2-(2-methoxyethyl)-5,6-dihydroimidazo[2,1-b]-thiazole hydrobromide], the inhibition at 1 µM [1] was less than 50%, the inhibition at 1 µM [2] was 62% and the inhibition at 1 µM [3] was less than 50%.
